Measured values reported in paper PMC10244169, “Psychedelics promote plasticity by directly binding to BDNF receptor TrkB” (Nature Neuroscience, 2023).

What was measured:
TrkB [1] = molecular target: T1, TrkB (Rattus norvegicus, UniProt Q63604); assay: biochemical; assay type: binding; details: for displacement of ^3H-LSD from TrkB: 1 nM to 10 µM of drug; for K (one phase exponential decay, best-fit) / Plateau (one phase exponential decay, best-fit) / Span (one phase exponential decay, best-fit): ext fig 1h
T1 construct: expressed in transfected cells; host or cells: HEK293T
T1 sequence (Q63604 32-821): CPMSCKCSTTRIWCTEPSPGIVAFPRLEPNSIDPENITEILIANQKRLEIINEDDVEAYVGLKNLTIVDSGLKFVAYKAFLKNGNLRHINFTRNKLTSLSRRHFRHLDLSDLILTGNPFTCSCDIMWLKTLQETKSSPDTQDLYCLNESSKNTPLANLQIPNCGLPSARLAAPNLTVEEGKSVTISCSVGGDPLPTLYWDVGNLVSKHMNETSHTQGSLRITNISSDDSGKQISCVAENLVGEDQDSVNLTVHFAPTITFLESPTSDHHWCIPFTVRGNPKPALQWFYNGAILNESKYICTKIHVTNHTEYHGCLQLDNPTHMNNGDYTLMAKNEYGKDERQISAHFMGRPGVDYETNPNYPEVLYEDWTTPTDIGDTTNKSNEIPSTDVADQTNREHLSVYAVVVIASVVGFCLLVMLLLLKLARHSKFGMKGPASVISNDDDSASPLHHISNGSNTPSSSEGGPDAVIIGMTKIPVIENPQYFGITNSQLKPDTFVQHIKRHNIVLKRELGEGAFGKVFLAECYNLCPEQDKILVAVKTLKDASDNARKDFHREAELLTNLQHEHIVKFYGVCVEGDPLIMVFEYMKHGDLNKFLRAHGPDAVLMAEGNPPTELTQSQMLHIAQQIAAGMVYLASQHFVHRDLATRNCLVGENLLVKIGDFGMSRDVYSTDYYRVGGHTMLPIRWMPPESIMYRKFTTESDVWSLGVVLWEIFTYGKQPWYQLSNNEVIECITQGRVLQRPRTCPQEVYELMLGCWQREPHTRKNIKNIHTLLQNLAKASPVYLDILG

[2] = Supplementary Table 3 legend; source not stated; cited from earlier work
TrkB [3] = molecular target: T1, TrkB; assay: Competition binding with biotinylated R,R-HNK
Method: Binding assays were performed as previously described with minor modifications. […] Samples from mouse embryo (E18) brains were also lysed, vortexed, sonicated and centrifuged for binding assays. Plates were then washed with PBS. […] For the competition binding assays with biotinylated R,R-HNK, the amino-biotinylation of R,R-HNK was performed using a commercial kit (Thermo Scientific, EZ-Link NHS-PEG4 Biotinylation Kit, 21455) and the reaction monitored by MS. A mixture of biotinylated R,R-HNK (10 µM) and unlabeled compounds (1 pM to 10 µM) in PBS was added to the 96-well plates containing the immunoprecipitated TrkB and incubated for 1 h at room temperature. […] Luminescence was determined via streptavidin conjugated with horseradish peroxidase (HRP; Thermo Fisher Scientific, 21126; 1:5,000, 1 h at room temperature) in reaction with the Pierce ECL substrate (Thermo Fisher Scientific, 32106). Luminescence from blank wells that contained all reagents but the sample lysates was used to determine nonspecific binding. To obtain the binding curves, results from binding assays were fitted to the equation of specific binding with Hill slope from GraphPad Prism 9.2. To calculate koff values, results were fitted to the equation of dissociation of one phase exponential decay from GraphPad Prism 9.2.

TrkB (WT) dimerization = molecular target: T2, TrkB (WT) dimerization (Rattus norvegicus, UniProt Q63604); assay: Split-luciferase PCA of TrkB dimerization in N2a cells; assay type: cell-based; details: ketanserin 100 nM, M100907 100 nM or TrkB.FC 200 ng ml^−1, 10 min before
T2 construct: expressed in transfected cells; host or cells: N2a
T2 sequence (Q63604 32-821): as above
T2 sequence (Q63604 32-821): as above
Method: Ketanserin, M100907 and TRKB.FC were added to the media 10 min before treatment. The PCA method was performed as previously described[11],[75],[76]. Split humanized Gaussia princeps luciferase (hGLuc) was cloned on the C-terminus of the reporter proteins TrkB (WT and Y433F) and lipid raft Fyn. If the reporter proteins that carry complementary halves of the luciferase interact, the enzyme can refold in its functional conformation and, upon addition of its substrate, produce luminescence proportionally to the amount of reporter proteins interacting at a given time. N2a cells were seeded in 96-well plates with opaque walls and transparent bottom (PerkinElmer, ViewPlate 96). Cells were transfected with Lipofectamine 2000 according to the manufacturer’s instructions 24 h post-plating with the PCA pair plasmids: phGLuc(1C)-TrkB(WT) or the mutant phGLuc(1C)-TrkB(Y433F) and phGLuc(2 C)-TrkB(WT) for the dimerization experiments; phGLuc(1C)-lipid raft Fyn and phGLuc(2C)-TrkB(WT) or phGLuc(2C)-TrkB(Y433F) for the lipid raft localization experiments. Forty-eight hours post transfection, cells were treated (40 min, 37 °C) in phenol red-free Dulbecco’s modified Eagle medium without serum. […] The PCA signal was detected with the substrate for the luciferase, native coelenterazine, which was injected into each well directly in the plate reader at a final concentration of […].

[4] = test system: dendritic arbor complexity of neuronal cultures; parameters: method as in PMID 29898390; details: cultured neurons; cited from earlier work
TrkB [5] = assay: Western blot of TrkB protein expression in N2a cells; assay type: cell-based; details: WT and Y433F^+/−
Method: In a separate set of experiments to examine the effect of 5-HT2A activation, M100907 (100 nM) was administered as a 10 min pretreatment and remained in the medium for the rest of the experiment. Next, cells were lysed and centrifuged. […] The co-immunoprecipitation was carried out as previously described[11],[23],[24] with minor modifications. Briefly, Magnetic Dynabeads Protein G (Invitrogen, 10004D) were coated with anti-TrkB antibody (R&D Systems, AF1494) at 200 ng of antibody per 1 µl of beads in rotation (2 h, 4 °C). Finally, lysates were mixed with the coated beads (100 µg of total protein per 15 µl of beads) and incubated in rotation (overnight, 4 °C).
Proteins were separated according to their molecular weight by SDS–PAGE and transferred to a polyvinylidene fluoride membrane. Membranes were incubated with the following primary antibodies (all 1:1,000 in 3% BSA in TBS-T, overnight, 4 °C): anti-TrkB (R&D Systems, AF1494), anti-β-actin (Sigma-Aldrich, A1978), anti-phospho-mTOR (Cell Signaling Technology, 5536S), anti-phospho-p44/42 MAPK (Erk1/2) (Cell Signaling Technology, 9106S), anti-mTOR (Cell Signaling Technology, 2972S) and anti-p44/42 MAPK (Erk1/2) (Cell Signaling Technology, 9102S). […] Protein bands were visualized using enhanced chemiluminescent substrate (Thermo Scientific, 32132, ECL Plus) and imaged with a charge-coupled device camera (G:BOX, Syngene).

[6] = test system: dendritic arbor complexity of neuronal cultures; assay: Dendritogenesis (Sholl analysis) in neuronal cultures (WT and Y433F^+/−); assay type: cell-based, mouse; details: for e6e group mean (dendritogenesis, Sholl analysis): BDNF; for e6e Mean Diff. (Veh. minus BDNF): uncorrected Fisher's LSD
Method: In a separate set of experiments to study the effects of extracellular BDNF and 5-HT2A activation, cultures were also pretreated for 10 min with TrkB.FC (200 ng ml^−1) or M100907 (100 nM), respectively. Similar to treatment with the psychedelics, TrkB.FC and M100907 pretreatments were administered in cumulative doses and remained in the medium for the rest of the experiment. At DIV7, neurons were pre-incubated for 1 h with […] MgCl2 to prevent excitotoxicity, then neurons were transfected for the heterologous expression of mCherry. To minimize any possible interference of the transfection protocol upon the drug effect, transfection was done in the morning while treatment with psychedelics was always added in the evening. Twenty-four hours after transfection, neurons were fixed with 4% PFA for 20 min at room temperature, washed in PBS-T, blocked for 30 min with 3% BSA in PBS-T and incubated with chicken anti-MAP2 (Abcam, ab5392; 1:5,000, 1 h, room temperature). Then, coverslips were washed in PBS-T and incubated with Alexa Fluor 647-conjugated antibody goat anti-chicken (Invitrogen, A-21449; 1:1,000, 1 h, room temperature). Next, coverslips were washed in PBS-T and MilliQ water, and mounted in Dako fluorescence mounting medium (Agilent, S302380-2). Ten optical sections with a Z-step of 1.3 μm were acquired using a Zeiss LSM 710 confocal microscope with a LCI Plan/Neofluar 25×/0.8 lmm Korr DIC M27 objective. In the mCherry channel, the center of the soma was manually assigned and the number of dendritic intersections at fixed distances (every 5 μm) from the soma was automatically counted using the Sholl analysis plugin of ImageJ.

[7] = molecular target: the molecule itself; assay: NMR titration; 1H,15N-HSQC spectra of TrkB TMD in DMPC/DHPC bicelles at various lipid-to-protein ratios, 40 °C, pH 6.0; monomer to dimer
[8] = ext fig 1f, competition curve, n=5

C=CCN1C[C@H](C(=O)N(CCCN(C)C)C(=O)NCC)C[C@@H]2c3cccc4[nH]cc(c34)C[C@H]21 [cabergoline]
displacement of ^3H-LSD from TrkB (TrkB [1]): fail to displace ^3H-LSD
K (one phase exponential decay, best-fit) (TrkB [1]): 776405
Plateau (one phase exponential decay, best-fit) (TrkB [1]): 113.3
Span (one phase exponential decay, best-fit) (TrkB [1]): -10.49
pKa [2]: 6.22

CN1C[C@H](C(=O)N[C@]2(C)O[C@@]3(O)[C@@H]4CCCN4C(=O)[C@H](Cc4ccccc4)N3C2=O)C[C@@H]2c3cccc4[nH]cc(c34)C[C@H]21 [dihydroergotamine]
displacement of ^3H-LSD from TrkB (TrkB [1]): fail to displace ^3H-LSD
K (one phase exponential decay, best-fit) (TrkB [1]): 5.40E+07
Plateau (one phase exponential decay, best-fit) (TrkB [1]): 93.57
Span (one phase exponential decay, best-fit) (TrkB [1]): 15.09
pKa [2]: 6.75

O=C(c1ccc(F)cc1)C1CCN(CCn2c(=O)[nH]c3ccccc3c2=O)CC1 [ketanserin, ketanserin (+)-tartrate]
displacement of ^3H-LSD from TrkB (TrkB [1]): fail to displace LSD binding to TrkB
Fit status, specific binding with Hill slope (TrkB [1]; ext fig 1f): Ambiguous
Bmax (specific binding with Hill slope, best-fit) (TrkB [1]; [8]): 96.24
h (Hill slope, best-fit) (TrkB [1]; [8]): ~ 0.3927
displacement of biotinylated R,R-HNK from TrkB (TrkB [3]; biotinylated R,R-HNK 10 µM): not ketanserin, displace R,R-HNK binding to TrkB
K (one phase decay, best-fit) (TrkB [3]; ext fig 1g): 1491612413
Plateau (one phase decay, best-fit) (TrkB [3]; ext fig 1g): 97.9
Span (one phase decay, best-fit) (TrkB [3]; ext fig 1g): 2.855
Tau (one phase decay, best-fit) (TrkB [3]; ext fig 1g): 6.70E-10
Y0 (one phase decay, best-fit) (TrkB [3]; ext fig 1g): 100.8
effect of pretreatment on LSD- and BDNF-induced TrkB dimerization (TrkB (WT) dimerization): fails to prevent the effects of LSD and BDNF on TrkB dimerization
effect on LSD effects on dendritic arbor complexity [4]: prevent the effects of LSD on dendritic arbor complexity

BDNF: Brain-derived neurotrophic factor
total TrkB expression (TrkB [5]): No differences in total TrkB expression
e6f Sholl profile, mean ([6]; WT + BDNF, distance from soma 10 µm): 6.929
e6f Sholl profile, mean ([6]; WT + BDNF, distance from soma 15 µm): 9.643
e6f Sholl profile, mean ([6]; WT + BDNF, distance from soma 20 µm): 7.929
e6f Sholl profile, mean ([6]; WT + BDNF, distance from soma 25 µm): 7.929
e6f Sholl profile, mean ([6]; WT + BDNF, distance from soma 30 µm): 6
e6f Sholl profile, mean ([6]; WT + BDNF, distance from soma 35 µm): 4.5
e6f Sholl profile, mean ([6]; WT + BDNF, distance from soma 40 µm): 3.857
e6f Sholl profile, mean ([6]; WT + BDNF, distance from soma 45 µm): 3.571
e6f Sholl profile, mean ([6]; WT + BDNF, distance from soma 50 µm): 2.714
e6f Sholl profile, mean ([6]; WT + BDNF, distance from soma 55 µm): 2.429
e6f Sholl profile, mean ([6]; WT + BDNF, distance from soma 60 µm): 2.786
e6f Sholl profile, mean ([6]; WT + BDNF, distance from soma 65 µm): 2.643
e6f Sholl profile, mean ([6]; WT + BDNF, distance from soma 70 µm): 3.143
e6f Sholl profile, mean ([6]; WT + BDNF, distance from soma 75 µm): 2.929
e6f Sholl profile, mean ([6]; WT + BDNF, distance from soma 80 µm): 2.714
e6f Sholl profile, mean ([6]; WT + BDNF, distance from soma 85 µm): 2.786
e6f Sholl profile, mean ([6]; WT + BDNF, distance from soma 90 µm): 2.286
e6f Sholl profile, mean ([6]; WT + BDNF, distance from soma 95 µm): 1.857
e6f Sholl profile, mean ([6]; WT + BDNF, distance from soma 100 µm): 1.857
e6e group mean (dendritogenesis, Sholl analysis) ([6]; WT neuronal cultures, n=14): 78.5
e6e Mean Diff. (Veh. minus BDNF) ([6]; WT:Veh. vs. WT:BDNF): -30.1
e6f Sholl profile, mean ([6]; Y433F+/- + BDNF, distance from soma 10 µm): 8.0625
e6f Sholl profile, mean ([6]; Y433F+/- + BDNF, distance from soma 15 µm): 9.4375
e6f Sholl profile, mean ([6]; Y433F+/- + BDNF, distance from soma 20 µm): 10.25
e6f Sholl profile, mean ([6]; Y433F+/- + BDNF, distance from soma 25 µm): 8.8125
e6f Sholl profile, mean ([6]; Y433F+/- + BDNF, distance from soma 30 µm): 8.1875
e6f Sholl profile, mean ([6]; Y433F+/- + BDNF, distance from soma 35 µm): 6.3125
e6f Sholl profile, mean ([6]; Y433F+/- + BDNF, distance from soma 40 µm): 5.375
e6f Sholl profile, mean ([6]; Y433F+/- + BDNF, distance from soma 45 µm): 5.1875
e6f Sholl profile, mean ([6]; Y433F+/- + BDNF, distance from soma 50 µm): 3.9375
e6f Sholl profile, mean ([6]; Y433F+/- + BDNF, distance from soma 55 µm): 3.6875
e6f Sholl profile, mean ([6]; Y433F+/- + BDNF, distance from soma 60 µm): 3.25
e6f Sholl profile, mean ([6]; Y433F+/- + BDNF, distance from soma 65 µm): 2.5625
e6f Sholl profile, mean ([6]; Y433F+/- + BDNF, distance from soma 70 µm): 2.5
e6f Sholl profile, mean ([6]; Y433F+/- + BDNF, distance from soma 75 µm): 1.875
e6f Sholl profile, mean ([6]; Y433F+/- + BDNF, distance from soma 80 µm): 2
e6f Sholl profile, mean ([6]; Y433F+/- + BDNF, distance from soma 85 µm): 1.625
e6f Sholl profile, mean ([6]; Y433F+/- + BDNF, distance from soma 90 µm): 1.4375
e6f Sholl profile, mean ([6]; Y433F+/- + BDNF, distance from soma 95 µm): 1.75
e6f Sholl profile, mean ([6]; Y433F+/- + BDNF, distance from soma 100 µm): 1.3125
e6e group mean (dendritogenesis, Sholl analysis) ([6]; Y433F+/- neuronal cultures, n=16): 87.56
e6e Mean Diff. (Veh. minus BDNF) ([6]; Y433F+/-:Veh. vs. Y433F+/-:BDNF): -34.03
dendritic arbor complexity ([6]; cultures from WT mice): increases dendritic arbor complexity
dendritic arbor complexity ([6]; cultures from Y433F^+/− mice): increased dendritic arbor complexity

B1: TrkB TMD (transmembrane residues of human TrkB, T423-G466) (domain or fragment, UniProt Q16620 423-466, looked up)
chain: TDKTGREHLSVYAVVVIASVVGFCLLVMLFLLKLARHSKFGMKG
notes: human TrkB, transmembrane residues T423-G466, UniProt Q16620; 15N- or 15N,13C-labelled; Cloned by NdeI and HindIII into pGEMEX1
binding result [7]: binds
